Results from patent USRE39197E1, “Cell adhesion-inhibiting antiinflammatory and immune-suppressive compounds” (Abbott Laboratories, priority 1998, dated 2006).

Columns and labels:
[1] = molecular target: T1, interaction between the integrin LFA-1 and its adhesion partner ICAM-1 (Homo sapiens, UniProt P20701); assay: ICAM-1/LFA-1 Biochemical Interaction Assay; assay type: binding; details: 4 μM compound; recombinant LFA-1, biotinylated ICAM-1/Ig
T1 construct: Recombinant LFA-1 (100 μL of 0.7 μg/ml mL, ICOS Corporation) in D-PBS; purchased ICOS Corporation
Experimental: Compounds that antagonize the interaction between ICAM-1 and LFA-1 can be identified, and their activities quantitated, using both biochemical and cell-based adhesion assays. A primary biochemical assay measures the ability of the compound in question to block the interaction between the integrin LFA-1 and its adhesion partner ICAM-1, as described below:
ICAM-1/LFA-1 Biochemical Interaction Assay
In the biochemical assay, 100 μL of anti-LFA-1 antibody (ICOS Corporation) at a concentration of 5 μg/ml mL in Dulbecco's phosphate-buffered saaline (D-PBS) is used to coat wells of a 96-well microtiter plate overnight at 4° C. The wells are were then washed twice with wash buffer (D-PBS w/o Ca^++ or Mg^++, 0.05% Tween 20) and blocked by addition of 200 μL of D-PBS, 5% fish skin gelatin. Recombinant LFA-1 (100 μL of 0.7 μg/ml mL, ICOS Corporation) in D-PBS is was then added to each well. Incubation continues continued for 1 hour at room temperature and the wells are were washed twice with wash buffer. Serial dilutions of compounds being assayed as ICAM-1/LFA-1 antagonists, were prepared as 10 mM stock solutions in dimethyl sulfoxide (DMSO), are were diluted in D-PBS, 2 mM MgCl2, 1% fish skin gelatin and 50 μL of each dilution was added to duplicate wells. This is was followed by the addition of 50 μL of 0.8 μg/ml mL biotinylated recombinant ICAM-1/Ig (ICOS Corporation) to the wells and the plates are were incubated at room temperature for 1 hour. The wells are were then washed twice with wash buffer and 100 μL of Europium-labeled Streptavidin (Wallac Oy) diluted 1:100 in Delfia assay buffer (Wallac Oy), are was then added to the wells. Incubation proceeds proceeded for 1 hour at room temperature. The wells are were washed eight times with wash buffer and 100 μL of enhancement solution (Wallac Oy, cat. No. 1244-105) are was added to each well. Incubation proceeds proceeded for 5 minutes with constant mixing. Time-resolved fluorimetry measurements are were made using the a Victor 1420 Multilabel Counter (Wallac Oy) and the percent inhibition of each candidate compound is was calculated using the following equation: [formula] where “background” refers to wells that are were not coated with anti-LFA-1 antibody.

[2] = test system: adherence of JY-8 cells (expressing LFA-1) to immobilized ICAM-1; assay: ICAM-1/JY-8 Cell Adhesion Assay; assay type: cell-based, human
Experimental: ICAM-1/JT-8 Cell Adhesion Assay
For measurment measurement of inhibotory inhibitory activity in the cell-based adhesion assay, 96-well microtiter plates are were coated with 70 μL of recombinat recombinant ICAM-1/Ig (ICOS Corporation) at a concentration of 5 μg/mL in D-PBS w/o without Ca^++ or Mg++ or Mg^++ overnight at 4° C. The wells are were then washed twice with D-PBS and blocked by addition of 200 μL of D-PBS, 5% fish skin gelatin by incubation for 1 hour at room temperature. […] The percent inhibition of a candidate compound at a given concentration is was calculated using the following equation: [formula] and these concentration/inhibition data are were used to generate does response curves, from which IC50 values are were derived.

[3] = test system: adhesion of JY-8 cells (expressing LFA-1) to immobilized ICAM-3; assay: ICAM-3/JY-8 Cell Adhesion Assay; assay type: cell-based, human; details: 0.6 μM compound, JY-8 cells on immobilized ICAM-3/Ig; for inhibition at 0.6 µM: Homo sapiens
Experimental: As such, it is expected that these compounds should block the interaction of LFA-1 with other CAM's. […] Compounds of the present invention may be evaluated for their ability to block the adhesion of JY-8 cells (a human EBV-transformed B cell line expressing LFA-1 on its surface) to immobilized ICAM-3, as follows:
ICAM-3/JY-8 Cell Adhesion Assay
For measurement of inhibitory activity in the cell-based adhesion assay, 96-well microtiter plates are were coated with 50 μL of recombinant ICAM-3/Ig (ICOS Corporation) at a concentration of 10 μg/mL in D-PBS w/o without Ca^++ or Mg^++ overnight at 4° C. The wells are were then washed twice with D-PBS, blocked by addition of 100 μL of D-PBS, 1% bovine serum albumin (BSA) by incubation for 1 hour at room temperature, and washed once with RPMI-1640/5% heat-inactivated fetal bovine serum (adhesion buffer). Dilutions of compounds to be assayed for ICAM-3/LFA-1 antagonistic activity are were prepared in adhesion buffer from 10 mM stock solutions in DMSO and 100 μL are were added to duplicate wells. JY-8 cells (a human EBV-transformed B cell line expressing LFA-1 on its surface; 100 μL at 0.75×10^6 cells/ml mL in adhesion buffer) are were then added to the wells. Microtiter plates are were incubated for 30 minutes at room temperature; the adherent cells are were then fixed with 50 μL of 14% glutaraldehyde/D-PBS and were incubated for an additional 90 minutes. The wells are were washed gently with dH2O; 50 μL of dH2O is was added, following followed by 50 μL of 1% crystal violet. After 5 minutes the plates are were washed 3× times with dH2O; 75 μL of dH2O and 225 μL of 95% EtOH are were added to each well to extract the crystal violet from the cells. Absorbance is was measured at […] in an ELISA plate reader. The percent inhibition of a candidate compound is was calculated using the following equation. [formula]

[4] = Homo sapiens, JY-8, JY-8 cells on immobilized ICAM-1/Ig
[5] = JY-8 cells on immobilized ICAM-1/Ig

T1 sequence (P20701 26-1170): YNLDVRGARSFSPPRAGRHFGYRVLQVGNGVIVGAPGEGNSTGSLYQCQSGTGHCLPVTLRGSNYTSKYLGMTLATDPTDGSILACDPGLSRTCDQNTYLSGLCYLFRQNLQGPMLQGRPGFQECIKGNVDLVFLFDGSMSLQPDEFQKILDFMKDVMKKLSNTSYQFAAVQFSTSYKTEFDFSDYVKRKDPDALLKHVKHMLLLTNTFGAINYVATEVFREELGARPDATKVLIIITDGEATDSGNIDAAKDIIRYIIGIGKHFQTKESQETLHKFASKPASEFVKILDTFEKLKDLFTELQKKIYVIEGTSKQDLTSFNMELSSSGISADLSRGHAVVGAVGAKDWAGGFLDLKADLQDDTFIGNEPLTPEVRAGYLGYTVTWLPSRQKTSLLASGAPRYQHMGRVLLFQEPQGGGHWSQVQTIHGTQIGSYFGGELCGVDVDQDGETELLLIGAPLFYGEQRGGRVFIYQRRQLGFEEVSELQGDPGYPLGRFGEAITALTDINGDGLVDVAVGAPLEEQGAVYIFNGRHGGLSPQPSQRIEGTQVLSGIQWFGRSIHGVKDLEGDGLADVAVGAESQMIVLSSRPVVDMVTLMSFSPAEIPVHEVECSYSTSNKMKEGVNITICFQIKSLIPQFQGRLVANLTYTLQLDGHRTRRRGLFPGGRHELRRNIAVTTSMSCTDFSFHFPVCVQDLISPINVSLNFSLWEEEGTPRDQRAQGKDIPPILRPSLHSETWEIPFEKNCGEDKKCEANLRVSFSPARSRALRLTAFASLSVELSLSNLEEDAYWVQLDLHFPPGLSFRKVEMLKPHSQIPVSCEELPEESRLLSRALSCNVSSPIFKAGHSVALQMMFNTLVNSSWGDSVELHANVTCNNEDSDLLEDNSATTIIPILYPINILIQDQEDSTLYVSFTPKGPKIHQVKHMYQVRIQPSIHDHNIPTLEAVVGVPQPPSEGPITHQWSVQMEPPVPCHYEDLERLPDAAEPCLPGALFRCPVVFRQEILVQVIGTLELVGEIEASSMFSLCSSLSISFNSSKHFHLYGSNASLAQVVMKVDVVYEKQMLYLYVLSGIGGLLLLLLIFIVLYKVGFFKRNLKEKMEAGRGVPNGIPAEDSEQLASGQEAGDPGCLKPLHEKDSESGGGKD
T1 sequence (P05107 23-769 partner): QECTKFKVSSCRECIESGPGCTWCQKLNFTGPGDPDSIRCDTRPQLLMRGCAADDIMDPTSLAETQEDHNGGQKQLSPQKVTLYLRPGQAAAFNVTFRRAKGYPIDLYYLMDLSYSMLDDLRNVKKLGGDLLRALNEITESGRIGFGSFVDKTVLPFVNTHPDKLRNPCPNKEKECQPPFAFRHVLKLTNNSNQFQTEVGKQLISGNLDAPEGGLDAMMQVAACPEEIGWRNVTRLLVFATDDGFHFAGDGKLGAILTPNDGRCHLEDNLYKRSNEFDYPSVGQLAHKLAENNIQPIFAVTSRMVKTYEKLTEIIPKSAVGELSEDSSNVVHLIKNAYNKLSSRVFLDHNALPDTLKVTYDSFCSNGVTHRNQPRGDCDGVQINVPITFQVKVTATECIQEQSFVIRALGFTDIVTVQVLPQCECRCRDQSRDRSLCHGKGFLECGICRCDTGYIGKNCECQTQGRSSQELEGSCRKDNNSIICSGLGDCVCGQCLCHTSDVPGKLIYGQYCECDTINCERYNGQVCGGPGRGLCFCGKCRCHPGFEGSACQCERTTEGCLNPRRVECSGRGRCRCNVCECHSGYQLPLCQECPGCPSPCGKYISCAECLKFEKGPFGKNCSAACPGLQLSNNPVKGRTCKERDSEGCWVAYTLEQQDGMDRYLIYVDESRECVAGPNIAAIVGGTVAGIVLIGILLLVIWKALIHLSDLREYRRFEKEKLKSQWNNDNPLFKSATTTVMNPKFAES

inhibition at 4 µM [1] [%]	IC50 [2, 4] [nM]	IC50 ([2]; Homo sapiens, JY-8 cells on immobilized ICAM-1/Ig) [nM]	% inhibition @ 4 μM [1] [%]	IC50 [2, 5] [nM]	Structure (SMILES)	inhibition at 0.6 µM [3] [%]	% inhibition @ 0.6 μM [3] [%]
88	50				CC(=O)N1CCN(C(=O)/C=C/c2ccc(Sc3ccccc3C)c([N+](=O)[O-])c2)CC1 [Example 45, (2-Methylphenyl)[2-nitro-4-(E-((4-acetylpiperazin-1-yl)carbonyl)ethenyl)phenyl]sulfide]	100	
93	250				Cc1ccccc1Sc1ccc(/C=C/C(=O)NCCCN2CCCC2=O)cc1C(F)(F)F [Example 30, (2-Methylphenyl)[2-trifluoromethyl-4-(E-((3-(2-oxopyrrolidin-1-yl)propylamino)carbonyl)ethenyl)phenyl]sulfide]	100	
95		30			CC(=O)N1CCN(C(=O)/C=C/c2ccc(Sc3ccccc3C=O)c([N+](=O)[O-])c2)CC1 [Example 60, (2-Formylphenyl)[2-nitro-4-(E-((4-acetylpiperazin-1-yl)carbonyl)ethenyl)phenyl]sulfide]	100	
93	130				CC(=O)N1CCN(C(=O)/C=C/c2ccc(Sc3ccc(Cl)cc3Cl)c(Cl)c2)CC1 [Example 9, (2,4-Dichlorophenyl)[2-chloro-4-(E-((4-acetylpiperazin-1-yl)carbonyl)ethenyl)phenyl]sulfide]	100	
89	430				CC(=O)N1CCN(C(=O)/C=C/c2ccc(Sc3ccc(Br)cc3)c([N+](=O)[O-])c2)CC1 [Example 35, (4-Bromophenyl)[2-nitro-4-(E-((4-acetylpiperazin-1-yl)carbonyl)ethenyl)phenyl]sulfide]	100	
92					CC(=O)N1CCN(C(=O)/C=C/c2ccc(Sc3ccc(Cl)cc3Cl)c([N+](=O)[O-])c2)CC1 [Example 32, (2,4-Dichlorophenyl)[2-nitro-4-(E-((4-acetylpiperazin-1-yl)carbonyl)ethenyl)phenyl]sulfide]	100	
83	110				CCN(CC)C(=O)N1CCN(C(=O)/C=C/c2ccc(Sc3ccc(Cl)cc3Cl)c([N+](=O)[O-])c2)CC1 [Example 41, (2,4-Dichlorophenyl)[2-nitro-4-(E-((4-(diethylaminocarbonyl)piperazin-1-yl)carbonyl)ethenyl)phenyl]sulfide]	100	
			94	110	CC(=O)N1CCN(C(=O)/C=C/c2ccc(Sc3ccccc3C)c(C(F)(F)F)c2)CC1 [Example 26]		100
			86	300	O=C(/C=C/c1ccc(Sc2ccccc2Br)c(Cl)c1)N1CCCCC1CO (centres unmarked) [Example 16, (2-(Bromophenyl)[2-chloro-4-(E-((2-hydroxymethyl)piperidin-1-yl)carbonyl)ethenyl)phenyl]sulfide]		100
			84	5800	CC(=O)NC1CCN(C(=O)/C=C/c2ccc(Sc3ccccc3Br)c(Cl)c2)C1 (centres unmarked) [Example 17]		100
93	20				CCc1ccccc1Sc1ccc(/C=C/C(=O)N2CCN(C(C)=O)CC2)cc1[N+](=O)[O-] [Example 49, (2-Ethylphenyl)[2-nitro-4-(E-((4-acetylpiperazin-1-yl)carbonyl)ethenyl)phenyl]sulfide]	100	
91	70				CC(=O)N1CCN(C(=O)/C=C/c2ccc(Sc3cccc(Cl)c3Cl)c([N+](=O)[O-])c2)CC1 [Example 34, (2,3-Dichlorophenyl)[2-nitro-4-(E-((4-acetylpiperazin-1-yl)carbonyl)ethenyl)phenyl]sulfide]	100	
			94	160	Cc1ccccc1Sc1ccc(/C=C/C(=O)N2CCOCC2)cc1C(F)(F)F [Example 27, (2-Methylphenyl)[2-trifluoromethyl-4-(E-((1-morpholinyl)carbonyl)ethenyl)phenyl]sulfide]		100
			88	140	O=C(/C=C/c1ccc(Sc2ccccc2Br)c(Cl)c1)N1CCCC(CO)C1 (centres unmarked) [Example 15, (2-(Bromophenl)[2-chloro-4-(E-((3-hydroxymethyl)piperidin-1-yl)carbonyl)ethenyl)phenyl]sulfide]		100
			90	360	O=C(/C=C/c1ccc(Sc2ccccc2Br)c(Cl)c1)N1CCOCC1 [Example 12]		100
			86	130	O=C(/C=C/c1ccc(Sc2ccccc2Br)c(Cl)c1)N1CCC(O)CC1 [Example 18]		100
87	60				CC(=O)N1CCN(C(=O)/C=C/c2ccc(Sc3ccccc3Cl)c([N+](=O)[O-])c2)CC1 [Example 46, (2-Chlorophenyl)[2-nitro-4-(E-((4-acetylpiperazin-1-yl)carbonyl)ethenyl)phenyl]sulfide]	100	
